Target: T1, olaAHR2a (Oryzias latipes, UniProt A0A2I4U6J3)
T1 sequence (A0A2I4U6J3 1-904): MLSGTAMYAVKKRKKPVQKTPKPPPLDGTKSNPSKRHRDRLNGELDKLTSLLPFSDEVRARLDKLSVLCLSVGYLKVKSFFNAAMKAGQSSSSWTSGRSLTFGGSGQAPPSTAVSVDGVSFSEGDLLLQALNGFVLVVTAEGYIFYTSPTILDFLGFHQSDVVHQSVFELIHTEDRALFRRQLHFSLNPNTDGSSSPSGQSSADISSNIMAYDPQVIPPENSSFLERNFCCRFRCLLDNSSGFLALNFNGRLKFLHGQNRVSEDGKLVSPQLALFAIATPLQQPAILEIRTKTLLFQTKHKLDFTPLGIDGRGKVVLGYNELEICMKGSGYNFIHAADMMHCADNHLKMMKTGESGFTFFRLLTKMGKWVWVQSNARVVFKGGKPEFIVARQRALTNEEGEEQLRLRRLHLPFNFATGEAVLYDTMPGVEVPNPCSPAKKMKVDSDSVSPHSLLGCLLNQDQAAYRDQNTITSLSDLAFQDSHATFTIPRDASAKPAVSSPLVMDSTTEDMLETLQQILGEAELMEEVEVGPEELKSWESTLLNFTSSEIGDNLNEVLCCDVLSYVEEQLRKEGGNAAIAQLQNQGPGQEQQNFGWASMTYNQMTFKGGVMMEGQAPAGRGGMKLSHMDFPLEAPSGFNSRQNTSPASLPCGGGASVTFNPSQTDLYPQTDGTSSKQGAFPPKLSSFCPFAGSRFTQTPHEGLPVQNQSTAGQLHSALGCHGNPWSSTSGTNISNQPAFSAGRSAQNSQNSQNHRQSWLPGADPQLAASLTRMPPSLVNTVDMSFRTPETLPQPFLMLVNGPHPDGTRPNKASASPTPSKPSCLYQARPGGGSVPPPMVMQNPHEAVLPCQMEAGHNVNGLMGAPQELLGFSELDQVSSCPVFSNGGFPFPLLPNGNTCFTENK
Experiment: luciferase reporter transactivation
Format: cell-based

`O=c1cc(-c2ccccc2)oc2ccc3ccccc3c12` [BNF] showed an EC50 of 19.4 ± 1.98 nM.

From paper doi:10.1101/2024.12.01.626272v1 (biorxiv, 2024)
